{"source": "patent US20100197610A1", "about": "“FRUCTOSE 1, 6 BISPHOSPHATE - A NOVEL ANTICONVULSANT DRUG” (Baylor College of Medicine, priority 2007, published 2010)", "key": {"[1]": {"experiment": "FDP levels in blood, brain and peripheral tissues after intraperitoneal administration", "assay_type": "in vivo, Sprague-Dawley rats", "description": "Adult male Sprague-Dawley rats (170-220 g) were used to determine the kinetics of fructose-1,6-diphosphate (FDP). Levels of FDP were determined in blood and tissue samples as previously described (Gerhard, Methods of Enzymatic Analysis, Vol VI, Ed. Bergmeyer, H U, Academic Press NY, pp. 342-350). All chemicals and enzymes for the assay were obtained from Sigma Chemical Co (St. Louis Mo.). Animals were administered a single dose of 0.5 g kg-1 FDP (250 mg ml-1 dissolved in 0.1M phosphate buffered saline, pH 7). In vivo studies utilized the dicalcium salt of FDP, which has a purity of ˜70%. […] At the designated time, animals were anesthetized with 1 g kg-1 urethane. After deep anesthesia, whole blood was obtained from a cardiac puncture. One ml of whole blood was added to 5 ml of perchloric acid ([…]) and mixed. After centrifugation at 3,500 rev min-1 for 10 min at 4° C., the supernatant was removed and set aside. The sediment was re-suspended in 1 ml of the perchloric acid solution and 1 ml of distilled water and centrifuged. The resulting supernatant was combined with the first one and the pH was adjusted to 3.5 with potassium carbonate (5 mol l-1). The final volume was brought to 7 ml and the solution was allowed to sit in ice for 15 min. The supernatant was used for determination of FDP levels.\nImmediately after removal of the whole blood sample, the rat was perfused through the heart with ice-cold 0.01M phosphate buffered saline. Tissue samples from liver, kidney, skeletal muscle (from thigh) and intra-abdominal fat were obtained and then the brain was removed and dissected into hippocampus, cerebral cortex, cerebellum and rest of brain. […] All tissue samples were weighed and then homogenized in 5 ml of ice-cold perchloric acid (0.6 mol l-1) as quickly as possible. The homogenates were then treated was described above for whole blood.\nActual levels of FDP were determined by monitoring absorbance of reduced nicotinamide adenine dinucleotide (NADH) and treating the sample with aldolase (EC 4.1.2.13, 45 units mg-1 diluted 1:27 with distilled water), the enzyme which cleaves FDP into dihydroxyacetone phosphate (DAP) and D-glyceraldehyde 3-phosphate (GAP). DAP and GAP are interconverted by the enzyme triosephosphate isomerase (TIM, EC 5.3.3.1, 5290 units mg-1 diluted 1:120 with distilled water). Glycerol-3-phosphate dehydrogenase (GDH, EC 1.1.1.8, 252 units mg-1 diluted 1:100 with distilled water) catalyzes the reduction of DAP by NADH. For the FDP measurements, 1.5 ml of tetraethyl ammonium buffer (TEA, 0.4 mol l-1, pH 7.6 with EDTA 40 mmol l-1) was added to 1 ml of the sample in a 4 ml cuvette. Then 0.1 ml of 5 mmol l-1 β-NADH, 0.4 ml of distilled water and 0.01 ml of the enzymes TIM and GDH were added and the cuvette inverted to mix the solutions. After 5 min the absorbance was read 3 times at 340 nm, each reading 3 min apart. The average of these readings is the initial absorbance (Ai). This step removes any DAP or GAP in the sample and determines the baseline absorbance. Aldolase (0.01 ml) was then added and mixed to cleave FDP into DAP and GAP. Nine minutes after addition of the aldolase, the final absorbance (Af) was determined by 3 readings at 340 nm, each 6 minutes apart. The concentration of FDP in the sample was proportional to the difference in the initial and final absorbance. Two moles of NADH are oxidized for each mole of FDP. Blanks and a FDP standard sample were run in parallel with every assay. Each blank had 1.6 ml of the TEA buffer, 1.4 ml water and the mixture of TIM and GDH. For the positive control, the sample was replaced with 1 ml of a solution containing 200 μg FDP per ml of phosphate buffered saline. The trisodium salt of FDP, with a purity of >98%, was utilized for all of the positive control samples and for the standard curves. Levels of FDP in blood were determined per ml, while levels in tissue samples were determined as a function of tissue weight. […]"}, "[2]": {"system": "spontaneous seizures after pilocarpine-induced status epilepticus", "experiment": "Oral FDP against spontaneous seizures after pilocarpine-induced status epilepticus", "assay_type": "in vivo", "settings": "FDP 0.5% in drinking water", "description": "Animals (n=14) were treated with pilocarpine to induce status epilepticus and subsequent spontaneous seizures. Four weeks later daily observation was begun and the number of seizures per day was determined for at least 6 days. The mean number of seizures per day over a 6 day period was determined for each animal and this was normalized to 100%. Half of the animals then had FDP added to the drinking water at a concentration of 0.5%. The number of seizures on each day was determined for each animal and calculated as percent of the baseline. The mean (±SEM) across animals in each treatment group was then calculated and plotted as a function of the days of treatment. […] Overall, the data was analyzed with a 2-way ANOVA comparing drug treatment against time and baseline rate of seizures. […] Post-hoc analysis determined that specifically on day 9 and 10 (*) the control was different than FDP-treated. Thus, oral administration of FDP has anticonvulsant activity against the generalized tonic-clonic seizures that are observed after pilocarpine-induced status epilepticus."}, "[3]": {"settings": "intravenous, rats (Nunes et al., 2003); cited from earlier work"}}}
{"smiles": "O=C(COP(=O)(O)O)[C@@H](O)[C@H](O)[C@H](O)COP(=O)(O)O", "note": "[F1,6BP, Fructose-1,6-bisphosphate]", "values": [{"measurement": "FDP level in the brain at 12 hours vs levels at 1 and 2 hours", "setting": "[1]; 0.5 g kg-1 ip", "value": "not significantly different"}, {"measurement": "time of peak FDP levels in blood", "setting": "[1]; 0.5 g kg-1 ip", "value": 2, "unit": "h"}, {"measurement": "time of peak FDP levels in the brain", "setting": "[1]; 0.5 g kg-1 ip", "value": "1 to 2", "unit": "h"}, {"measurement": "FDP levels in blood vs control", "setting": "[1]; 0.5 g kg-1 ip, 1 hour", "value": "significant increase"}, {"measurement": "FDP level in blood compared to control values", "setting": "[1]; 0.5 g kg-1 ip, 12 hours", "value": "significantly elevated"}, {"measurement": "FDP level in blood compared to the peak levels at 2 hours", "setting": "[1]; 0.5 g kg-1 ip, 12 hours", "value": "significantly decreased"}, {"measurement": "FDP levels in liver, kidney, muscle and fat", "setting": "[1]; 0.5 g kg-1 ip, 12 hours", "value": "returned to near baseline"}, {"measurement": "FDP levels in the brain vs control", "setting": "[1]; 0.5 g kg-1 ip, 36 hours", "value": "remained significantly elevated"}, {"measurement": "FDP levels in blood", "setting": "[1]; 0.5 g kg-1 ip, by 6 hours", "value": "fallen more than halfway back to baseline"}, {"measurement": "increase in FDP at 1 hour, all tissues measured", "setting": "[1]; 0.5 g kg-1 ip, liver, kidney, skeletal muscle and fat, n=6", "value": "around 0.2 mg g-1"}, {"measurement": "increase in FDP at 1 hour, kidney", "setting": "[1]; 0.5 g kg-1 ip, n=6", "value": 0.26, "unit": "mg/g"}, {"measurement": "increase in FDP at 1 hour, liver", "setting": "[1]; 0.5 g kg-1 ip, n=6", "value": 0.17, "unit": "mg/g"}, {"measurement": "increase in FDP at 1 hour, muscle", "setting": "[1]; 0.5 g kg-1 ip, n=6", "value": 0.17, "unit": "mg/g"}, {"measurement": "time at which an increase of FDP levels in blood was first seen", "setting": "[1]; single dose 0.5 g kg-1 ip", "value": 30, "unit": "min"}, {"measurement": "time out to which FDP levels in blood remained elevated", "setting": "[1]; single dose 0.5 g kg-1 ip", "value": 72, "unit": "h"}, {"measurement": "seizures per day (percent of baseline) vs non-treatment control group", "setting": "[2]; 2-way ANOVA", "value": "significantly different"}, {"measurement": "animals having a seizure by day 7", "setting": "[2]; 7 animals", "value": 1}, {"measurement": "LD50", "setting": "[3]", "value": "1,068 mg/kg"}]}
